Laboratory results reported in patent publication US8067460B2 (The Regents of the University of Califonia, priority 2004, dated 2011).
Like-named read-outs stand apart in the source and are kept apart here. No end group written: not given here.

Legend:
[1] = test system: delayed-type hypersensitivity (DTH) response; conditions: mini-pigs, cited from earlier work
Kv1.5 = Kv1.5 (Homo sapiens, UniProt P22460); experiment: Inhibitory effect on K+ channels (Appendix A): Kv1.5; assay type: cell-based; conditions: for nH (Kv1.5): Hill coefficient printed beside the Kv1.5 EC50
Kv1.3 = Kv1.3 (Mus musculus, UniProt P16390); experiment: Inhibitory effect on K+ channels (Appendix A): Kv1.3; assay type: cell-based; conditions: for nH (Kv1.3): Hill coefficient printed beside the Kv1.3 EC50; for selectivity for Kv1.3 channels over Kv1.5 channels: Kv1.3 versus Kv1.5, from Appendix A
Kv1.7 = Kv1.7 (Homo sapiens, UniProt Q96RP8); experiment: Inhibitory effect on K+ channels (Appendix A): Kv1.7; assay type: cell-based
BK = BK (Homo sapiens, UniProt Q12791); experiment: Inhibitory effect on K+ channels (Appendix A): BK; assay type: cell-based
Kv1.4 = Kv1.4 (Homo sapiens, UniProt P22459); experiment: Inhibitory effect on K+ channels (Appendix A): Kv1.4; assay type: cell-based
IKCa1 = IKCa1 (Homo sapiens, UniProt O15554); experiment: Inhibitory effect on K+ channels (Appendix A): IKCa1; assay type: cell-based
Kv1.1 = Kv1.1 (Homo sapiens, UniProt Q09470); experiment: Inhibitory effect on K+ channels (Appendix A): Kv1.1; assay type: cell-based
[2] = test system: class-switched (IgD−CD27+) memory B cells; conditions: cited from earlier work

Sequence of Kv1.1 (Q09470 whole entry): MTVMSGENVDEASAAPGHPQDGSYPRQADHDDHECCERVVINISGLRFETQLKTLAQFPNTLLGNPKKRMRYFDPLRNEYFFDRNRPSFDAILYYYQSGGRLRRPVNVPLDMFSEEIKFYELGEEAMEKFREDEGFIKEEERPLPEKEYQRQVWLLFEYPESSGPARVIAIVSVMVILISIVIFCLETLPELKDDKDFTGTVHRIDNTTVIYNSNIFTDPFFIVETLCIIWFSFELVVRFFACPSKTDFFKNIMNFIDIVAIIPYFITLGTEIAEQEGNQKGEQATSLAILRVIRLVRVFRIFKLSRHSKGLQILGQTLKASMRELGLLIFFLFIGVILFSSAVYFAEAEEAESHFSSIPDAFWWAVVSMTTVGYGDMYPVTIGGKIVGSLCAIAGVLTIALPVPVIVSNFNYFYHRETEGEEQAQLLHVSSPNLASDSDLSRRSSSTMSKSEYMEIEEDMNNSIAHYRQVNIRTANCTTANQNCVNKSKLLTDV
Sequence of Kv1.5 (P22460 whole entry): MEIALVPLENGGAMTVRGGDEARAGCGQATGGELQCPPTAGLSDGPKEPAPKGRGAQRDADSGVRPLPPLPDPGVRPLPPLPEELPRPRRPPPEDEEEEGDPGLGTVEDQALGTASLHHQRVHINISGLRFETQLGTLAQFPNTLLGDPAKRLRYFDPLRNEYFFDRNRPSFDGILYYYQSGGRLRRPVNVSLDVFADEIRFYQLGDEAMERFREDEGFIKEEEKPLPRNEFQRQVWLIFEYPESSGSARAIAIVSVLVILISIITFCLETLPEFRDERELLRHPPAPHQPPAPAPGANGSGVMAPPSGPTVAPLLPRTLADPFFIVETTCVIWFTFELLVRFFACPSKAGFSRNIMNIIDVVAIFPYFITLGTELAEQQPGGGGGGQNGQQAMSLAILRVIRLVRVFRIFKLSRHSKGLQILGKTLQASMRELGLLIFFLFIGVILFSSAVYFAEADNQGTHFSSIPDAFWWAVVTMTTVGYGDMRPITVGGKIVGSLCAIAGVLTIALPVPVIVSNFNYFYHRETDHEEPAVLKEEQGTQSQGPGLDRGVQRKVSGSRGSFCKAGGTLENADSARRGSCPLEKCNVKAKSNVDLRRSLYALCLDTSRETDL
Sequence of Kv1.3 (P16390 whole entry): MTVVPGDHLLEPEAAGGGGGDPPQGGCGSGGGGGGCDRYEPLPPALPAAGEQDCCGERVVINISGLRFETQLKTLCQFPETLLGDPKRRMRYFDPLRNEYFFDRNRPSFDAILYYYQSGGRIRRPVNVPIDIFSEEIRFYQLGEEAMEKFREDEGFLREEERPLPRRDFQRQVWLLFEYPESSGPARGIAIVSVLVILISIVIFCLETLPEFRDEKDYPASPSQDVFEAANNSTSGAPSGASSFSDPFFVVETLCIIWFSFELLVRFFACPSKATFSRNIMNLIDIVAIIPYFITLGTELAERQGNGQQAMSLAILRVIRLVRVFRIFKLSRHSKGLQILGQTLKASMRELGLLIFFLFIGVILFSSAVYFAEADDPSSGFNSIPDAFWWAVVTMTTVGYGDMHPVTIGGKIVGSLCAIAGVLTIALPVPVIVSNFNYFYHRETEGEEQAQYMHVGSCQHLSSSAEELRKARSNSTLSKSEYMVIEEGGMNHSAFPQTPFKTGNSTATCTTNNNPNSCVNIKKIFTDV
Sequence of Kv1.4 (P22459 whole entry): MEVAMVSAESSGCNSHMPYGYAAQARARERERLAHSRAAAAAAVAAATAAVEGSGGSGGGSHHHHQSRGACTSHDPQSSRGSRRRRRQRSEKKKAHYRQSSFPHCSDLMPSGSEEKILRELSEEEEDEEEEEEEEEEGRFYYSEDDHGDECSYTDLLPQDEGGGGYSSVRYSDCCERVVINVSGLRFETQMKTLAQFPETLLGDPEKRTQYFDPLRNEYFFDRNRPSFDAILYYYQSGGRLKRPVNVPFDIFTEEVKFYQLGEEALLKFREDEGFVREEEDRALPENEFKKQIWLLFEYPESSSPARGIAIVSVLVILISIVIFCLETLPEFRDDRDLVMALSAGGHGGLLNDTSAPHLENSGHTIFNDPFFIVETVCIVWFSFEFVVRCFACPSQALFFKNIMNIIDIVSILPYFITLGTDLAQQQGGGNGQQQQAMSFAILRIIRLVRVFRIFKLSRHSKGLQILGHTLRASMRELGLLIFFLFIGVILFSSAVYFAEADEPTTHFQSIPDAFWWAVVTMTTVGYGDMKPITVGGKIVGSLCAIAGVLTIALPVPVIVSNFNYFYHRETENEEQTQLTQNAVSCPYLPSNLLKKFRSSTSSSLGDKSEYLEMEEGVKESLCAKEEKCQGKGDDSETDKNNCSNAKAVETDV
Sequence of BK (Q12791 whole entry): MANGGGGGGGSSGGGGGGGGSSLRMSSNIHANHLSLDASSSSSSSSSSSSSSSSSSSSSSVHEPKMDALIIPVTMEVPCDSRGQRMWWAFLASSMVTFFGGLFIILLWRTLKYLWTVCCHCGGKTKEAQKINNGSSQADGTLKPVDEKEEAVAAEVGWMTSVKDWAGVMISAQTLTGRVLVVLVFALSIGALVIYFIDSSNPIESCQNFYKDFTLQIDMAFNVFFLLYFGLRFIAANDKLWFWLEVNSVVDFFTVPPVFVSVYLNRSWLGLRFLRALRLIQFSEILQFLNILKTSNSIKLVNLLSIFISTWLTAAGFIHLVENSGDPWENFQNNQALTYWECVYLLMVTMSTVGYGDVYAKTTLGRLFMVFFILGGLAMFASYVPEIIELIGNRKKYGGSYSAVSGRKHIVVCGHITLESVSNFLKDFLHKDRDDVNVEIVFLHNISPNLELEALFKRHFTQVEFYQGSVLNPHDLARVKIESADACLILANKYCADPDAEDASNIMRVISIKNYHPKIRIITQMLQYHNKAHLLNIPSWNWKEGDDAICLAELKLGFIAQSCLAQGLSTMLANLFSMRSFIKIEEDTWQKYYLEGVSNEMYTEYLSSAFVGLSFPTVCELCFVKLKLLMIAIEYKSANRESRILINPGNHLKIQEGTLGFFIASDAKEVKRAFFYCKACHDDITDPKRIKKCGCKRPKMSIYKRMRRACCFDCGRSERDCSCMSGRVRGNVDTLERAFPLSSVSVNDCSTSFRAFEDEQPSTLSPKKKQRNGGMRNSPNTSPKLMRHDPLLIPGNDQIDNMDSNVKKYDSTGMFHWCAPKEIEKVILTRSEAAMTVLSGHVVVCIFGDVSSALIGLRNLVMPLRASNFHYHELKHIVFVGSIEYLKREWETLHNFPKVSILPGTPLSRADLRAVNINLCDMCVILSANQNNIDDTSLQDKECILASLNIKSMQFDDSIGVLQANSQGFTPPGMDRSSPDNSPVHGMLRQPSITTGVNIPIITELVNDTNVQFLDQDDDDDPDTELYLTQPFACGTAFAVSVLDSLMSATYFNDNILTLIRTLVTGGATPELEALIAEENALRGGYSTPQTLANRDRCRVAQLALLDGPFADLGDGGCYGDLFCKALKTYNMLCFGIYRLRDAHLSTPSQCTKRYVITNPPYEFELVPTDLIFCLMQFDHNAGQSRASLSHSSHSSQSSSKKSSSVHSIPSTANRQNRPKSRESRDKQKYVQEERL
Sequence of Kv1.7 (Q96RP8 whole entry): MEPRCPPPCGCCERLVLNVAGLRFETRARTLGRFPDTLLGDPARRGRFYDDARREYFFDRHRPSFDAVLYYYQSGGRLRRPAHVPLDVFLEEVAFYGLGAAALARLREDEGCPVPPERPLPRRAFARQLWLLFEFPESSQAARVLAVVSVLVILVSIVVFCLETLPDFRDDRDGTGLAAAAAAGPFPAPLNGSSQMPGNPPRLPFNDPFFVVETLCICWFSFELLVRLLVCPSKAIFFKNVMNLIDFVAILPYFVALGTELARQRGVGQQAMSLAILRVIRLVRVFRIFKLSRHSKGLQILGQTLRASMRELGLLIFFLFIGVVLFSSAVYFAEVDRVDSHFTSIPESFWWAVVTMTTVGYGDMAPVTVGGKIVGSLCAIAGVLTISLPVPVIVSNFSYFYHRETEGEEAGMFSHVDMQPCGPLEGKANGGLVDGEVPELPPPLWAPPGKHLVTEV

Compound	EC50 (Kv1.5) [µM]	nH (Kv1.3) (Kv1.3)	other results
C=C1C[C@@]2(O)[C@@H]3CC[C@@]4(C)[C@@H]5C=CC(=O)OC[C@]5(C(C)OC(C)=O)[C@@H](OC(C)=O)[C@@H](OC(C)=O)[C@@H]4[C@@]3(C)[C@H](OC(C)=O)[C@H](OC(C)=O)[C@@]2(C)C2(C(=O)OC)O[C@H]12 (some centres unmarked) [correolide]			suppression of the primary DTH response [1]: effectively suppress; suppression of the secondary DTH response [1]: much less effective
O=c1ccc2c(OCCCOCc3ccccc3)c3ccoc3cc2o1	0.17 ± 0.02		
N#CCCCOc1c2occc2cc2ccc(=O)oc12			EC50 (Kv1.5; cells printed in μM): 10 µM
O=c1ccc2c(OCCCCOCc3ccc(F)cc3)c3ccoc3cc2o1		2	
O=c1ccc2c(OCCCCn3cccn3)c3ccoc3cc2o1			EC50 (Kv1.5; cells printed in μM): 5 µM
4-[3-(4-Methylphenoxy)propoxy]-7H-furo[3,2-g][1]benzopyran-7-on [AS127]		1.9	nH (Kv1.5) (Kv1.5): 1.8; EC50 (Kv1.5; cells unit inferred): 0.25 ± 0.01 µM; EC50 (Kv1.3): 25 ± 2 nM
N#CCCCOc1c2ccoc2cc2oc(=O)ccc12			EC50 (Kv1.5; cells printed in μM): 12 µM
O=c1ccc2c(OCCCCSc3ncccn3)c3ccoc3cc2o1	0.159 ± 0.007		
MgTX: Kv1.3 blocker MgTX (TIINVKCTSPKQCLPPCKAQFGQSAGAKCMNGKCKCYPH; ends and bridges not checked; cysteine pairing not given here; UniProt P40755 1-39, looked up)			suppression of the primary DTH response [1]: effectively suppress; suppression of the secondary DTH response [1]: much less effective
4-[3-(1-Naphthyloxy)propoxy]-7H-furo[3,2-g][1]benzopyran-7-on [AS135]		2.1	EC50 (Kv1.3): 18 ± 1 nM
Cc1nnc(SCCCCOc2c3ccoc3cc3oc(=O)ccc23)s1			EC50 (Kv1.5; cells printed in μM): 1 µM
COc1cc([N+](=O)[O-])ccc1OCCCCOc1c2ccoc2cc2oc(=O)ccc12	0.476 ± 0.02		
Cc1ccc(OCCCCOc2c3ccoc3cc3oc(=O)ccc23)cc1 [AS96, 4-(4-[4-Methylphenoxy]butoxy)-7H-furo[3,2-g][1]benzopyran-7-on]	0.02	2.1	
O=c1ccc2c(OCCCCOc3ccc(Cl)cc3)c3ccoc3cc2o1 [AS84, 4-(4-[4-Chlorphenoxy]butoxy)-7H-furo[3,2-g][1]benzopyran-7-on]	0.01	2.0	
COc1cc(OC)cc(OCCCOc2c3ccoc3cc3oc(=O)ccc23)c1 [AS104, 4-[3-(3,5-Dimethoxyphenoxy)propoxy]-7H-furo[3,2-g][1]benzopyran-7-on]		2.2	
O=c1ccc2c(OCCCCOc3ccc(F)cc3)c3ccoc3cc2o1	0.012 ± 0.001	2.3	
O=c1ccc2c(OCCCCOc3ccc4ccccc4c3)c3ccoc3cc2o1 [AS118]	0.08 ± 0.01	2.1	nH (Kv1.5) (Kv1.5): 2.0
O=c1ccc2c(OCCCOc3ccc(Cl)cc3)c3ccoc3cc2o1 [AS132, 4-[3-(4-Chlorphenoxy)propoxy]-7H-furo[3,2-g][1]benzopyran-7-on]			nH (Kv1.5) (Kv1.5): 2.0; EC50 (Kv1.5; cells unit inferred): 0.025 ± 0.002 µM; nH (Kv1.3) (Kv1.3; listed as drawing 81): 2.0
N#CCCCCOc1c2ccoc2cc2oc(=O)ccc12			EC50 (Kv1.5; cells printed in μM): 5 µM
N#CCCCCOc1c2occc2cc2ccc(=O)oc12			EC50 (Kv1.5; cells printed in μM): 10 µM

Compound	EC50 (Kv1.5) [µM]	nH (Kv1.3) (Kv1.3)	other results
O=c1ccc2c(OCCCCOc3ccccc3)c3ccoc3cc2o1 [PAP 1, 4-(4-Phenoxybutoxy)-7H-furo[3,2-g][1]benzopyran-7-on]	0.045 ± 0.003	1.8	EC50 (Kv1.7): 98 ± 5 nM; nH (Kv1.5) (Kv1.5): 2.3; EC50 (BK): 1500 ± 700 nM; EC50 (Kv1.4): 75 ± 5 nM; EC50 (IKCa1): 10000 ± 1000 nM; EC50 (Kv1.1): 65 ± 8 nM
O=c1ccc2c(OCCCCOc3cccc(C(F)(F)F)c3)c3ccoc3cc2o1	0.25	2.0	
O=c1ccc2c(OCCCCOc3ccc(Oc4ccccc4)cc3)c3ccoc3cc2o1 [AS85, 4-(4-[4-Phenoxyphenoxy]butoxy)-7H-furo[3,2-g][1]benzopyran-7-on]	0.75		selectivity for Kv1.3 channels over Kv1.5 channels (Kv1.3): selective for Kv1.3 channels over Kv1.5 channels
O=c1ccc2c(OCCCCOc3ccc([N+](=O)[O-])cc3)c3ccoc3cc2o1 [AS78, 4-(4-[4-Nitrophenoxy]butoxy)-7H-furo[3,2-g][1]benzopyran-7-on]	0.105 ± 0.008	1.9	selectivity for Kv1.3 channels over Kv1.5 channels (Kv1.3): selective for Kv1.3 channels over Kv1.5 channels
4-[3-(3-Methoxyphenoxy)propoxy]-7H-furo[3,2-g][1]benzopyran-7-on [AS64]		2.05	EC50 (Kv1.3): 42 ± 3 nM
COc1ccc(OCCCCOc2c3ccoc3cc3oc(=O)ccc23)cc1 [AS67, 4-(4-[4-Methoxyphenoxy]butoxy)-7H-furo[3,2-g][1]benzopyran-7-on]	0.01 ± 0.001	2.1	
COc1cccc(OCCCCOc2c3ccoc3cc3oc(=O)ccc23)c1 [AS68, 4-(4-[3-Methoxyphenoxy]butoxy)-7H-furo[3,2-g][1]benzopyran-7-on]	0.045 ± 0.005		
4-[3-(4-Ethylphenoxy)propoxy]-7H-furo[3,2-g][1]benzopyran-7-on [AS123]		1.7	nH (Kv1.5) (Kv1.5): 2.0; EC50 (Kv1.5; cells unit inferred): 0.068 ± 0.003 µM; EC50 (Kv1.3): 30 ± 2 nM
CCc1ccc(OCCCCCOc2c3ccoc3cc3oc(=O)ccc23)cc1		2.1	
O=c1ccc2c(OCCCCOCc3ccccc3)c3ccoc3cc2o1	0.75 ± 0.04		
O=c1ccc2c(OCCCCOc3cccc4ccccc34)c3ccoc3cc2o1 [AS111]	0.05 ± 0.005	2.0	nH (Kv1.5) (Kv1.5): 2.0
O=c1ccc2c(OCCCOc3ccccc3)c3ccoc3cc2o1 [PAP 3, 4-(3-Phenoxypropoxy)-7H-furo[3,2-g][1]benzopyran-7-on]	0.1 ± 0.008		EC50 (Kv1.4): ~500 nM; EC50 (Kv1.1): 80 ± 10 nM
COc1ccc2sc(SCCCCOc3c4ccoc4cc4oc(=O)ccc34)nc2c1	0.1		
O=c1ccc2c(OCCCCc3ccccc3)c3ccoc3cc2o1 [Psora-4]			inhibition of proliferation [2]: potently inhibited
COc1cc(OC)cc(OCCCCOc2c3ccoc3cc3oc(=O)ccc23)c1 [AS69, 4-(4-[3,5-Dimethoxyphenoxy]butoxy)-7H-furo[3,2-g][1]benzopyran-7-on]	0.15 ± 0.02		
O=c1ccc2c(OCCCCNc3ccncc3)c3ccoc3cc2o1			EC50 (Kv1.5; cells printed in μM): 5 µM
O=c1ccc2c(OCCCCCOc3ccccc3)c3ccoc3cc2o1		2.1	
Cc1ccc(OCCCCOc2c3ccoc3cc3oc(=O)ccc23)c([N+](=O)[O-])c1	0.248 ± 0.02		
O=c1ccc2c(OCCOCc3ccccc3)c3ccoc3cc2o1	0.11 ± 0.02		EC50 (Kv1.1): 175 ± 20 nM
O=c1ccc2ccc(OCCCCOc3c4ccoc4cc4oc(=O)ccc34)cc2o1			EC50 (Kv1.5; cells printed in μM): 5 µM
